Results published in BindingDB's records for doi:10.1016/j.bmcl.2021.128001 (The First Affiliated Hospital of Anhui Medical University, 2021).

Target: T1, Peptidase (Staphylococcus aureus, UniProt Q7DHH4)
T1 sequence (Q7DHH4 whole entry): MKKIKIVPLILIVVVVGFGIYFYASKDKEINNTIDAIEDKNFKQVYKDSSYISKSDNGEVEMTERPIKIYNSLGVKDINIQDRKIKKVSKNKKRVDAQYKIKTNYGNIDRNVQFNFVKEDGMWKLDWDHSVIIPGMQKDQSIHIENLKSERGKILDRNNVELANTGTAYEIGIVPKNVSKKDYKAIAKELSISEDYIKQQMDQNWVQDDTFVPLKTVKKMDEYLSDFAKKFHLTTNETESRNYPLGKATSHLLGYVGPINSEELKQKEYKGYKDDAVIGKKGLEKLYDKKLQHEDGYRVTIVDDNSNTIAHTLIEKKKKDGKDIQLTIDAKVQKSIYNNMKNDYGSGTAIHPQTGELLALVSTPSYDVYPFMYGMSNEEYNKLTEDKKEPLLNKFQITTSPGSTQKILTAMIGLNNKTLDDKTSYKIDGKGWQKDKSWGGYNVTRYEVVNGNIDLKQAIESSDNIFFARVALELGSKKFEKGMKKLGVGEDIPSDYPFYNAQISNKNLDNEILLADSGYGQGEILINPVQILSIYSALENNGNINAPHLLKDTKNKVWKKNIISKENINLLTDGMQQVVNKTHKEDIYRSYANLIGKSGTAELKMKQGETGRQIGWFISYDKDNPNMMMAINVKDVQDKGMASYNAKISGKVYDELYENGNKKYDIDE
Test: Binding affinity to Staphylococcus aureus PBP2a assessed as dissociation constant by SPR assay

Row | koff [s⁻¹] | SMILES
1 | 0.0253 | Cc1ccc(NC(=O)[C@H](Cc2c[nH]c3ccccc23)NC(=O)C2CCN(C(=O)CNC(=O)OC(C)(C)C)CC2)cc1
2 | 0.0214 | COc1ccc(-c2cc(=O)oc3c(C)c(OCC(=O)N[C@@H](Cc4c[nH]c5ccc(O)cc45)C(=O)O)ccc23)cc1
3 | 0.0207 | COc1cc2c(c(OC)c1OC)-c1ccc(NCC(=O)NCCc3c[nH]c4ccccc34)c(=O)cc1[C@@H](NC(C)=O)CC2

Row | SMILES | koff [s⁻¹]
4 | COc1ccc(NC(=O)[C@H]2Oc3c(c(=O)oc4ccccc34)[C@@H]2c2ccc(CCCN3CCCC3=O)cc2)cc1 | 0.0284
